For this assay, the target named is T1, purified human HDAC6 (Homo sapiens, UniProt Q9UBN7).
T1 construct: purchased BPS Bioscience 5006
T1 sequence (Q9UBN7 1-1215): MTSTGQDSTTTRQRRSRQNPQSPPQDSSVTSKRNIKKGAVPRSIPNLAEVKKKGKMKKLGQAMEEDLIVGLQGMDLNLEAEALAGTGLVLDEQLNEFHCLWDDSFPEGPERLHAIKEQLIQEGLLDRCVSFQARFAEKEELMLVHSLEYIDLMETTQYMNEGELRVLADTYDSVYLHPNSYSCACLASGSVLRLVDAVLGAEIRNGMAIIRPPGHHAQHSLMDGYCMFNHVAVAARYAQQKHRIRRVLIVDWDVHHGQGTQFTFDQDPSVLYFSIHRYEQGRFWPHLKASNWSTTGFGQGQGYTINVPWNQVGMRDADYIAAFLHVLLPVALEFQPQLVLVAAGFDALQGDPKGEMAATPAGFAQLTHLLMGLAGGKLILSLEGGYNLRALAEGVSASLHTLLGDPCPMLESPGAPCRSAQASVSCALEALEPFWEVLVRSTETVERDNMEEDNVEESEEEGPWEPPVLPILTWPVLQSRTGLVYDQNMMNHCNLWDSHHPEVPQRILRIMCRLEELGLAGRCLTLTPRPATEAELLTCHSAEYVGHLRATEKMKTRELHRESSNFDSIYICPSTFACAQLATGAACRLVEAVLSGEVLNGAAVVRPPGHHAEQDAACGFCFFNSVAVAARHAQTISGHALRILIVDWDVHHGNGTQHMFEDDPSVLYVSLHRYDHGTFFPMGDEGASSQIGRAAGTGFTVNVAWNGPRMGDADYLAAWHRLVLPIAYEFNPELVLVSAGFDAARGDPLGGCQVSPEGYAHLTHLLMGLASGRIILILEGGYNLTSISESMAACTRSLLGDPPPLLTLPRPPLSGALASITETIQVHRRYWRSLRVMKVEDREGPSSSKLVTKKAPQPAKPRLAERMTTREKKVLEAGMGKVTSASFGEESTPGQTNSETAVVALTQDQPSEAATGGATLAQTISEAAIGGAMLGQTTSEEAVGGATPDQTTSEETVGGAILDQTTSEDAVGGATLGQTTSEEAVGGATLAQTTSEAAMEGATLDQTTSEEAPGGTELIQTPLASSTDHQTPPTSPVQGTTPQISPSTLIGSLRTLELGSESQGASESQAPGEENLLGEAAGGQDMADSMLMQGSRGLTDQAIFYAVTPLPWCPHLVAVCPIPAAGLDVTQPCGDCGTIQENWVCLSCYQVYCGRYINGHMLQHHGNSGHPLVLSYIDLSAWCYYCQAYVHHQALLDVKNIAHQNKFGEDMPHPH
Description: HDAC6 Enzyme Assay. To be noted: HDAC6 inhibition at a compound concentration of 0.412 μM; read-out: Percent Inhibition at 0.412 μM. The format is biochemical.

The inhibition is the share of the control response that was lost under treatment. With `N#Cc1cc(-c2ccc3c(c2)CC(C(=O)NO)CC3)ccc1F` (stereo not drawn) [Compound I-105, 7-(3-cyano-4-fluorophenyl)-N-hydroxy-1,2,3,4-tetrahydronaphthalene-2-carboxamide], the inhibition at 0.412 µM came to 61%.

Turning to `O=C(NO)C1CCc2ccc(-c3cccc([N+](=O)[O-])c3)cc2C1` (stereo not drawn) [Compound I-106, N-hydroxy-7-(3-nitrophenyl)-1,2,3,4-tetrahydronaphthalene-2-carboxamide], the inhibition at 0.412 µM was determined as 83%.

For `CCOc1cccc(-c2ccc3c(c2)CC(C(=O)NO)CC3)c1` (stereo not drawn) [Compound I-107, 7-(3-ethoxyphenyl)-N-hydroxy-1,2,3,4-tetrahydronaphthalene-2-carboxamide], the inhibition at 0.412 µM was determined as 86%.

`CN(C)C(=O)c1ccc(-c2ccc3c(c2)CC(C(=O)NO)CC3)cc1F` (stereo not drawn) [Compound I-108, 7-{4-[(dimethylamino)carbonyl]-3-fluorophenyl}-N-hydroxy-1,2,3,4-tetrahydronaphthalene-2-carboxamide]: the inhibition at 0.412 µM was determined as 75%.

In the case of `COc1ccc(-c2ccc3c(c2)CC(C(=O)NO)CC3)cc1OC` (stereo not drawn) [Compound I-109, 7-(3,4-dimethoxyphenyl)-N-hydroxy-1,2,3,4-tetrahydronaphthalene-2-carboxamide], the inhibition at 0.412 µM turned out to be 82%.

As for `O=C(NO)C1CCc2ccc(-c3cccc(-c4ccccc4)c3)cc2C1` (stereo not drawn) [Compound I-110, 7-biphenyl-3-yl-N-hydroxy-1,2,3,4-tetrahydronaphthalene-2-carboxamide], the inhibition at 0.412 µM is 83%.

In the case of `Cc1ccc(C)c(-c2ccc3c(c2)CC(C(=O)NO)CC3)c1` (stereo not drawn) [Compound I-111, 7-(2,5-dimethylphenyl)-N-hydroxy-1,2,3,4-tetrahydronaphthalene-2-carboxamide], the inhibition at 0.412 µM stood at 74%.

Turning to `O=C(NO)C1CCc2ccc(-c3ccc(C(F)(F)F)cc3)cc2C1` (stereo not drawn) [Compound I-112, N-hydroxy-7-[4-(trifluoromethyl)phenyl]-1,2,3,4-tetrahydronaphthalene-2-carboxamide], the inhibition at 0.412 µM was found to be 58%.

`O=C(NO)C1CCc2ccc(-c3ccc(F)c(C(=O)N4CCCC4)c3)cc2C1` (stereo not drawn) [Compound I-113, 7-[4-fluoro-3-(pyrrolidin-1-ylcarbonyl)phenyl]-N-hydroxy-1,2,3,4-tetrahydronaphthalene-2-carboxamide]: the inhibition at 0.412 µM was determined as 89%.

Consider `COc1ccc2cc(-c3ccc4c(c3)CC(C(=O)NO)CC4)ccc2c1` (stereo not drawn) [Compound I-114, N-hydroxy-6′-methoxy-5,6,7,8-tetrahydro-2,2′-binaphthalene-7-carboxamide], for which the inhibition at 0.412 µM is 76%.

With `CN(C)C(=O)c1cc(-c2ccc3c(c2)CC(C(=O)NO)CC3)ccc1Cl` (stereo not drawn) [Compound I-115, 7-{4-chloro-3-[(dimethylamino)carbonyl]phenyl}-N-hydroxy-1,2,3,4-tetrahydronaphthalene-2-carboxamide], the inhibition at 0.412 µM was found to be 83%.

Regarding `CC(C)Oc1ncccc1-c1ccc2c(c1)CC(C(=O)NO)CC2` (stereo not drawn) [Compound I-116, N-hydroxy-7-(2-isopropoxypyridin-3-yl)-1,2,3,4-tetrahydronaphthalene-2-carboxamide], the inhibition at 0.412 µM stood at 82%.

As to `O=C(NO)C1CCc2ccc(-c3ccc(S(=O)(=O)N4CCOCC4)cc3)cc2C1` (stereo not drawn) [Compound I-117, N-hydroxy-7-[4-(morpholin-4-ylsulfonyl)phenyl]-1,2,3,4-tetrahydronaphthalene-2-carboxamide], the inhibition at 0.412 µM was 74%.

On to `O=C(NO)C1CCc2ccc(-c3ccc(C(=O)N4CCCC4)c(F)c3)cc2C1` (stereo not drawn) [Compound I-118, 7-[3-fluoro-4-(pyrrolidin-1-ylcarbonyl)phenyl]-N-hydroxy-1,2,3,4-tetrahydronaphthalene-2-carboxamide], for which the inhibition at 0.412 µM was found to be 77%.

On to `O=C(NO)C1CCc2ccc(-c3ccc(F)c(Cl)c3)cc2C1` (stereo not drawn) [Compound I-119, 7-(3-chloro-4-fluorophenyl)-N-hydroxy-1,2,3,4-tetrahydronaphthalene-2-carboxamide], for which the inhibition at 0.412 µM worked out at 69%.

The record behind these values is patent publication US20140243334A1, “SUBSTITUTED HYDOXAMIC ACIDS AND USES THEREOF” (Millennium Pharmaceuticals, Inc., priority 2010, published 2014).
